# According to patent US7816321B2, “Thymosin β4 derivatives and use thereof” (Beijing Northland Biotech. Co., Ltd., priority 2005, dated 2010):
# Where “and” joins values, the source holds several entries; their conditions need not be identical. Equal values may be shown once.
# Assays:
# Format in all cases: in vivo
# [1] = test system: rat models with left anterior descending branch coronary artery ligation and reperfusion; experiment: Rat coronary artery ligation and reperfusion model: cell death and heart function (summary); settings: continuous injection for one month
# Description: 60 adult rats were subjected to coronary artery deligation to imitate the onset of heart disease and to obtain rat models with left anterior descending branch coronary artery ligation and reperfusion.
# (§1) Rats were administrated with xylazine 5 mg/kg by intramuscular injection; anesthetized with ketamine 50 mg/kg, and rat anterior chest wall was disinfected with iodine tincture and alcohol; after completely dry, a sterile operation towel was put on, the operative site was exposed, and the operation was conducted under complete aseptic condition. The skin of rat anterior chest wall was incised, and the 3rd to the 6th ribs were cut to expose thoracic cavity, the lung was pushed aside, the heart vesicle was opened to expose the heart. Blood vessel from the origin of left anterior descending branch coronary artery to 3 mm was ligated with 6-0 polypropylene ligature wire and NELATION, and the reperfusion was conducted 1 hour later. After non-hemorrhage was confirmed, the excised ribs were sutured with sternum, and then skin was sutured. After operation, the rats were administrated with 3 mg/kg/day gentamicin for 3 days by intramuscular injection for prevention of infection.
# [2] = test system: rat left anterior descending branch coronary artery reperfusion models (acute myocardial infarction); experiment: Rat heart ischemia model: thickness of anterior left ventricular wall by ultrasonic cardiogram; settings: for thickness of anterior left ventricular wall: 10 μg/rat/day intraperitoneal injection
# Description: as §1
# 3. Comparison of Degree of Heart Ventricle Fibrosis by Using Histological Pictures
# [3] = test system: rabbit cornea alkali burn models; experiment: Rabbit cornea alkali burn model: recovery of corneal epithelium; settings: 5th day; 500 μg/ml eyedrops, 4 times per day
# Source text: Eyeballs were exenterated separately after 1 and 5 days, fixed with 10% formaldehyde, embedded with paraffin, and continuously sectioned along pupil optic nerve plane, the obtained sections were stained and used for collection and analysis of recovery of corneal epithelium by image analysis system.
# [4] = test system: rat cornea alkali burn models; experiment: Rat cornea alkali burn model: recovery of corneal epithelium by image analysis
# Source text: The corneas of 30 adult rats were burned with 1N NaOH to obtain rat corneal lesion models.
# After 4 days, eyeballs were exenterated, fixed with 10% formaldehyde, embedded with paraffin and continuously sectioned along pupil optic nerve plane, the obtained sections were used for collection and analysis of recovery of corneal epithelium by image analysis system.
# [5] = test system: rat left anterior descending branch coronary artery reperfusion models (acute myocardial infarction); experiment: Rat heart ischemia model: degree of heart ventricle fibrosis by histological pictures (Masson's trichrome); settings: 56th day after administration; 10 μg/rat/day intraperitoneal injection
# Description: as §1
# [6] = test system: rat epidermis lesion models; experiment: Rat epidermis lesion model: wound healing observation after topical administration by nebulizer
# Description: (§2) Rats were administrated with xylazine 5 mg/kg by intramuscular injection; anesthetized with ketamine 50 mg/kg, and rat posterior skin was disinfected with iodine tincture and alcohol; after completely dry, a sterile operation towel was put on, the operative site was exposed, and the operation was conducted under complete aseptic condition. The rat posterior skin was incised to form 3 cm incision.
# [7] = test system: rat epidermis lesion models; experiment: Rat epidermis lesion model: wound length by computer image analysis (smearing on epidermis)
# Description: 30 adult rats were cut on their epidermis to obtain rat epidermis lesion model.
# as §2
# [8] = 100 μg/ml, topical by nebulizer, 4 times per day
substance,measurement,setting,value
"Tβ4: Native thymosin β4, polypeptide with 43 amino acids as shown in SEQ ID NO:1; positive control (SDKPDMAEIEKFDKSKLKKTETQEKNPLPSKETIEQEKQAGES; listed as Homo sapiens)",cell death in the injured rat heart,[1],Limited cells died
same,heart functions,[1]; several weeks after the onset of heart disease,heart functions were improved
same,"thickness of anterior left ventricular wall, basal value","[2]; 0th day, before administration, rat heart ischemia model",0.2378±0.018
same,thickness of anterior left ventricular wall,[2]; 14th day after administration,0.1919±0.012 and 0.1215±0.013
same,thickness of anterior left ventricular wall,[2]; 28th day after administration,0.1233±0.0071
same,thickness of anterior left ventricular wall,[2]; 56th day after administration,0.1232±0.0057
same,layers of epithelial cells appeared,[3],1-2 layers
same,recovery condition of corneal epithelium,[3],all injured corneal epithelial cells were recovered and became normal
same,"recovery of corneal epithelium (image analysis), basal value","[4]; 0th day, before administration, 1N caustic soda burn",4.76±0.18
same,recovery of corneal epithelium (image analysis),"[4]; 4th day after administration, eyedrops 30 μl/rat, 4 times per day",7.03±0.13
same,recovery of injured corneas,"[4]; dropped in eyes for 4 days, corneas burned with 1N NaOH",recovered completely
same,ratio of fibrosis part of myocardium based on total myocardium of left ventricle,[5],23.15±2.9% and 22.91±2.3%
same,wound healing time,[6]; [8],5.8 ± 0.91 days
same,wound inflammatory reaction (severity),[6]; [8],relatively slight inflammatory reactions
same,"wound inflammatory reaction, time persisted",[6]; [8],1 to 2 days
same,scar appearance,"[6]; two weeks after administration, 100 μg/ml by nebulizer",relatively fine linear scars with relatively smooth surface
same,scar size,"[6]; two weeks after administration, 100 μg/ml by nebulizer, 4 times per day",1.9±0.23 cm
same,"wound length, basal value","[7]; 0th day, before administration, 3 cm incision of posterior skin",3.07±0.18
same,wound length,"[7]; 5th day, smeared on epidermis 4 times per day, 5 μg/day",1.62±0.13
same,length of wounds smaller than the blank control,"[7]; smeared for 5 days, 30 adult rats",50%
